The record followed here is PubChem BioAssay (NCI).

Each structure is given as a SMILES string.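 48-hour exposure; five concentrations; linearly interpolated endpoints. TGI denotes the concentration required for complete inhibition of growth.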

The term TGI denotes the concentration at which net growth stops. High values mean lower sensitivity of the cells, low ones greater sensitivity of the cells.

The first test relates to KM12 colon. In words: DTP human tumour cell line panel, 48 h.
Turning to `CCN(CC)CSc1nc2ccccc2s1`, the TGI is > 100 µM.

The next test concerns TK-10 renal. Briefly: DTP human tumour cell line panel, 48 h.
In the case of `O=[N+]([O-])C1C2C=CC(C2)[C@H]1c1ccco1` (stereo not given in full), the TGI was > 100 µM.

Take `Cc1c(/C=N/NC(=O)c2cc(Br)cc(Br)c2O)c(=O)n(-c2ccccc2)n1C`: the TGI was > 100 µM.

`O=C1C(Br)=CC2(C=C1Br)CCNC1=C2C(=O)c2ccccc2C1=O`: the TGI was determined as 83.4 µM.

As to `CCOC(=O)c1nc2ccc(Cl)cc2c2c1Cc1ccccc1-2`, the TGI is > 100 µM.

Turning to `CCN(CC)CSc1nc2ccccc2s1`, the TGI is > 100 µM.

The test system of a further test is UO-31 renal. In words: DTP human tumour cell line panel, 48 h.
`O=[N+]([O-])C1C2C=CC(C2)[C@H]1c1ccco1` (stereo not given in full): the TGI was > 100 µM.

Take `Cc1c(/C=N/NC(=O)c2cc(Br)cc(Br)c2O)c(=O)n(-c2ccccc2)n1C`: the TGI was > 100 µM.

As to `CCOC(=O)c1nc2ccc(Cl)cc2c2c1Cc1ccccc1-2`, the TGI was > 100 µM.

In another test the test system is NCI-H23 lung. In words: DTP human tumour cell line panel, 48 h.
On to `O=[N+]([O-])C1C2C=CC(C2)[C@H]1c1ccco1` (stereo not given in full), for which the TGI came out at 2.36 µM.

For the compound `Cc1c(/C=N/NC(=O)c2cc(Br)cc(Br)c2O)c(=O)n(-c2ccccc2)n1C`, the TGI was > 100 µM.

`O=C1C(Br)=CC2(C=C1Br)CCNC1=C2C(=O)c2ccccc2C1=O`: the TGI was found to be 33.7 µM.

Consider `CCOC(=O)c1nc2ccc(Cl)cc2c2c1Cc1ccccc1-2`, for which the TGI is > 100 µM.

Turning to `CCN(CC)CSc1nc2ccccc2s1`, the TGI was > 100 µM.

The subject of a further test is HCT-116 colon. In words: DTP human tumour cell line panel, 48 h.
As to `O=[N+]([O-])C1C2C=CC(C2)[C@H]1c1ccco1` (stereo not given in full), the TGI was > 100 µM.

`Cc1c(/C=N/NC(=O)c2cc(Br)cc(Br)c2O)c(=O)n(-c2ccccc2)n1C`: the TGI was > 100 µM.

In turn, `O=C1C(Br)=CC2(C=C1Br)CCNC1=C2C(=O)c2ccccc2C1=O` showed a TGI of 17.6 µM.

On to `CCOC(=O)c1nc2ccc(Cl)cc2c2c1Cc1ccccc1-2`, for which the TGI is > 100 µM.

For the next test, the system named is CAKI-1 renal. In words: DTP human tumour cell line panel, 48 h.
For `O=[N+]([O-])C1C2C=CC(C2)[C@H]1c1ccco1` (stereo not given in full), the TGI was > 100 µM.

`Cc1c(/C=N/NC(=O)c2cc(Br)cc(Br)c2O)c(=O)n(-c2ccccc2)n1C` displayed a TGI of 94.2 µM.

Turning to `O=C1C(Br)=CC2(C=C1Br)CCNC1=C2C(=O)c2ccccc2C1=O`, the TGI is 72.4 µM.

On to `CCOC(=O)c1nc2ccc(Cl)cc2c2c1Cc1ccccc1-2`, for which the TGI was > 100 µM.

Regarding `CCN(CC)CSc1nc2ccccc2s1`, the TGI is > 100 µM.

Another test concerns UACC-257 melanoma. In words: DTP human tumour cell line panel, 48 h.
On to `O=[N+]([O-])C1C2C=CC(C2)[C@H]1c1ccco1` (stereo not given in full), for which the concentration for total growth inhibition (TGI) was > 100 µM.

With `Cc1c(/C=N/NC(=O)c2cc(Br)cc(Br)c2O)c(=O)n(-c2ccccc2)n1C`, the TGI was > 100 µM.

In the case of `O=C1C(Br)=CC2(C=C1Br)CCNC1=C2C(=O)c2ccccc2C1=O`, the TGI was 53.3 µM.

In the case of `CCOC(=O)c1nc2ccc(Cl)cc2c2c1Cc1ccccc1-2`, the total growth inhibition concentration (TGI) was > 100 µM.

As for `CCN(CC)CSc1nc2ccccc2s1`, the TGI was > 100 µM.

The test system of another test is SW-620 colon. In words: DTP human tumour cell line panel, 48 h.
Take `O=[N+]([O-])C1C2C=CC(C2)[C@H]1c1ccco1` (stereo not given in full): the TGI was > 100 µM.

As to `Cc1c(/C=N/NC(=O)c2cc(Br)cc(Br)c2O)c(=O)n(-c2ccccc2)n1C`, the TGI was > 100 µM.

Turning to `O=C1C(Br)=CC2(C=C1Br)CCNC1=C2C(=O)c2ccccc2C1=O`, the concentration for total growth inhibition (TGI) was 87.8 µM.

Consider `CCOC(=O)c1nc2ccc(Cl)cc2c2c1Cc1ccccc1-2`, for which the total growth inhibition concentration (TGI) was > 100 µM.

As to `CCN(CC)CSc1nc2ccccc2s1`, the TGI is > 100 µM.

A further test has as its system HOP-92 NSCLC. In words: DTP human tumour cell line panel, 48 h.
As for `O=[N+]([O-])C1C2C=CC(C2)[C@H]1c1ccco1` (stereo not given in full), the TGI was 18.4 µM. This counts as double-digit micromolar.

For the compound `Cc1c(/C=N/NC(=O)c2cc(Br)cc(Br)c2O)c(=O)n(-c2ccccc2)n1C`, the TGI is > 100 µM.

As to `CCN(CC)CSc1nc2ccccc2s1`, the TGI was > 100 µM.

A further test has as its system SK-OV-3 ovarian. In words: DTP human tumour cell line panel, 48 h.
Turning to `O=[N+]([O-])C1C2C=CC(C2)[C@H]1c1ccco1` (stereo not given in full), the TGI was > 100 µM.

For `Cc1c(/C=N/NC(=O)c2cc(Br)cc(Br)c2O)c(=O)n(-c2ccccc2)n1C`, the TGI is > 100 µM.

Regarding `O=C1C(Br)=CC2(C=C1Br)CCNC1=C2C(=O)c2ccccc2C1=O`, the TGI is > 100 µM.

For the compound `CCN(CC)CSc1nc2ccccc2s1`, the TGI is > 100 µM.

A further test relates to M19-MEL melanoma. In words: DTP human tumour cell line panel, 48 h.
`O=[N+]([O-])C1C2C=CC(C2)[C@H]1c1ccco1` (stereo not given in full): the TGI is > 100 µM.

Take `Cc1c(/C=N/NC(=O)c2cc(Br)cc(Br)c2O)c(=O)n(-c2ccccc2)n1C`: the TGI is > 100 µM.

In the case of `O=C1C(Br)=CC2(C=C1Br)CCNC1=C2C(=O)c2ccccc2C1=O`, the TGI turned out to be 18.4 µM. This counts as double-digit micromolar.

In the case of `CCOC(=O)c1nc2ccc(Cl)cc2c2c1Cc1ccccc1-2`, the TGI is > 100 µM.

As for `CCN(CC)CSc1nc2ccccc2s1`, the TGI was > 100 µM.

The subject of a further test is XF 498 CNS. In words: DTP human tumour cell line panel, 48 h.
Regarding `O=[N+]([O-])C1C2C=CC(C2)[C@H]1c1ccco1` (stereo not given in full), the TGI was > 100 µM.

Turning to `Cc1c(/C=N/NC(=O)c2cc(Br)cc(Br)c2O)c(=O)n(-c2ccccc2)n1C`, the TGI was 37.9 µM.

`CCOC(=O)c1nc2ccc(Cl)cc2c2c1Cc1ccccc1-2`: the TGI is > 100 µM.

As for `CCN(CC)CSc1nc2ccccc2s1`, the TGI is > 100 µM.

The test system of the next test is K-562 leukemia. In words: DTP human tumour cell line panel, 48 h.
For the compound `O=[N+]([O-])C1C2C=CC(C2)[C@H]1c1ccco1` (stereo not given in full), the TGI was > 100 µM.

Consider `Cc1c(/C=N/NC(=O)c2cc(Br)cc(Br)c2O)c(=O)n(-c2ccccc2)n1C`, for which the TGI is > 100 µM.

Consider `O=C1C(Br)=CC2(C=C1Br)CCNC1=C2C(=O)c2ccccc2C1=O`, for which the TGI was found to be 48.4 µM.

As for `CCOC(=O)c1nc2ccc(Cl)cc2c2c1Cc1ccccc1-2`, the TGI was > 100 µM.

For the compound `CCN(CC)CSc1nc2ccccc2s1`, the TGI is > 100 µM.

A further test relates to RXF-631 renal. In words: DTP human tumour cell line panel, 48 h.
`O=C1C(Br)=CC2(C=C1Br)CCNC1=C2C(=O)c2ccccc2C1=O` gave a TGI of 26.6 µM.

Another test deals with COLO 205 colon. In words: DTP human tumour cell line panel, 48 h.
Take `O=[N+]([O-])C1C2C=CC(C2)[C@H]1c1ccco1` (stereo not given in full): the TGI was > 100 µM.

Regarding `Cc1c(/C=N/NC(=O)c2cc(Br)cc(Br)c2O)c(=O)n(-c2ccccc2)n1C`, the TGI was > 100 µM.

`O=C1C(Br)=CC2(C=C1Br)CCNC1=C2C(=O)c2ccccc2C1=O` came in with a TGI of 15.9 µM.

Take `CCOC(=O)c1nc2ccc(Cl)cc2c2c1Cc1ccccc1-2`: the TGI was > 100 µM.

Turning to `CCN(CC)CSc1nc2ccccc2s1`, the TGI is > 100 µM.
